From ChEMBL document CHEMBL1287663 (Bioorg Med Chem, 2010)
pIC50: −log10 of the molar value.

How the values were obtained:
[1] = biological target: Inosine-5'-monophosphate dehydrogenase 2 (Homo sapiens, UniProt P12268); experiment: Inhibition of human IMPDH2 expressed in Escherichia coli strain BL21(DE3) after 60 mins
[2] = test system: K562; experiment: Induction of human K562 cells differentiation assessed as hemoglobin/genomic DNA level at 4 uM after 72 hrs relative to untreated control; assay type: functional
[3] = test system: K562; experiment: Cytotoxicity against human K562 cells after 72 hrs by trypan blue exclusion assay; assay type: functional, cell-based; details: K562, 72 h
[4] = biological target: Inosine-5'-monophosphate dehydrogenase 1 (Homo sapiens, UniProt P20839); experiment: Inhibition of human IMPDH1 expressed in Escherichia coli strain BL21(DE3) after 60 mins
Inosine-5'-monophosphate dehydrogenase 1, sequence (P20839 whole entry): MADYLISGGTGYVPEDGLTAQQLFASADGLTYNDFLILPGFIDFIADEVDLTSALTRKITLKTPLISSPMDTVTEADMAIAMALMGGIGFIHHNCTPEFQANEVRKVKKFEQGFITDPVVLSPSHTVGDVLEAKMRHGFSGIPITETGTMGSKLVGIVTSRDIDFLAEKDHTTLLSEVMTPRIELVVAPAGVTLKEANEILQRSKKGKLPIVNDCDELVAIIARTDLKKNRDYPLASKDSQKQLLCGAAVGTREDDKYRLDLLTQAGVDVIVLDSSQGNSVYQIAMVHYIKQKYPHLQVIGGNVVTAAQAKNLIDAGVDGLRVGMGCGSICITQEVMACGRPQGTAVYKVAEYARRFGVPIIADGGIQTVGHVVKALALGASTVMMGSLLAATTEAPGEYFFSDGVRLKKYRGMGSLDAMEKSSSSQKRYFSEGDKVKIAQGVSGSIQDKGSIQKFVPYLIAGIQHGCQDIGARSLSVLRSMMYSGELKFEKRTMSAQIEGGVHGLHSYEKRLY

[5] = test system: K562; experiment: Induction of human K562 cells differentiation assessed as hemoglobin/genomic DNA level at 8 uM after 72 hrs relative to untreated control; assay type: functional
[6] = test system: IMPDH2; experiment: Selectivity ratio of IC50 for human K562 cells to IC50 for human IMPDH2; assay type: ADME, cell-based; details: K562 cells versus IMPDH2 enzyme, read-out: Ratio IC50
[7] = test system: K562; experiment: Induction of human K562 cells differentiation assessed as hemoglobin/genomic DNA level at 16 uM after 72 hrs relative to untreated control; assay type: functional
[8] = test system: K562; experiment: Induction of human K562 cells differentiation assessed as hemoglobin/genomic DNA level at 32 uM after 72 hrs relative to untreated control; assay type: functional
[9] = species on record: Homo sapiens; experiment: Selectivity ratio of IC50 for human IMPDH1 to IC50 for human IMPDH2
[10] = test system: K562; experiment: Induction of human K562 cells differentiation assessed as hemoglobin/genomic DNA level at 2 uM after 72 hrs relative to untreated control; assay type: functional
[11] = test system: HeLa; experiment: Antiproliferative activity against human HeLa cells; assay type: functional, cell-based
[12] = test system: K562; experiment: Induction of human K562 cells differentiation assessed as hemoglobin/genomic DNA level at 1 uM after 72 hrs relative to untreated control; assay type: functional
[13] = Inhibition of HDAC
[14] = test system: K562; experiment: Induction of human K562 cells differentiation assessed as hemoglobin/genomic DNA level at 0.25 uM after 72 hrs relative to untreated control; assay type: functional
[15] = test system: K562; experiment: Induction of human K562 cells differentiation assessed as hemoglobin/genomic DNA level at 0.5 uM after 72 hrs relative to untreated control; assay type: functional

| SMILES | pIC50 [1] | Ratio [2] | pIC50 [3] | pIC50 [4] | Ratio [5] | selectivity ratio [6] | Ratio [7] | Ratio [8] | Ratio IC50 [9] | Ratio [10] | pIC50 [11] | Ratio [12] | pIC50 [13] | Ratio [14] | Ratio [15] |
| --- | --- | --- | --- | --- | --- | --- | --- | --- | --- | --- | --- | --- | --- | --- | --- |
| COc1c(C)c2c(c(O)c1C/C=C(\C)CCCO)C(=O)OC2 | 6.10 | 1.3 | 5.41 | 6.11 | 2.5 | 4.9 | 3.8 | 4.7 | 0.97 | 0.7 | – | – | – | – | – |
| COc1c(C)c2c(c(O)c1C/C=C(\C)CCC(=O)NO)C(=O)OC2 [MYCOPHENOLIC HYDROXAMIC ACID] | 6.38 | 2.9 | 5.68 | 6.46 | 3.2 | 5 | 1.8 | 1.7 | 0.83 | 1 | 5.70 | 0.8 | 6.00 | – | – |
| CCCCCCCCCCCCOc1c(C/C=C(\C)CCC(=O)NO)c(OC)c(C)c2c1C(=O)OC2 | – | – | – | – | – | – | – | – | – | – | 6.00 | – | 6.30 | – | – |
| COc1c(C)c2c(c(O)c1C/C=C(\C)CCC(=O)O)C(=O)OC2 [MYCOPHENOLIC ACID] | – | – | – | 7.72 | – | – | – | – | – | – | – | – | – | – | – |
| COc1c(C)c2c(c(OC)c1C/C=C(\C)CCC(=O)O)C(=O)OC2 | 4.14 | 1.1 | < 4.30 | 4.17 | 1.1 | – | 1.4 | 1 | 0.93 | 1.2 | – | – | – | – | – |
| C/C(=C\Cc1c(O)c(C)c2c(c1O)C(=O)OC2)CCC(=O)O | 6.77 | 1.1 | 5.09 | 6.82 | – | 48 | 1.8 | 3.1 | 0.88 | 1.1 | – | 1.4 | – | – | – |
| COc1c(C)c2c(c(OC)c1C/C=C(\C)CCC(=O)NO)C(=O)OC2 | – | – | – | – | – | – | – | – | – | – | 4.30 | – | 6.05 | – | – |
| COC(=O)CC/C(C)=C/Cc1c(O)c2c(c(C)c1OC)COC2=O | 5.85 | 4.9 | 6.14 | 5.82 | 5.6 | 0.52 | – | – | 1.1 | 3.5 | – | 2.1 | – | 1 | 1 |
| COc1c(C)c2c(c(OC(C)=O)c1C/C=C(\C)CCC(=O)O)C(=O)OC2 | 5.39 | 5.3 | 6.23 | 5.39 | 6 | 0.14 | – | – | 1 | 4.2 | – | 2.9 | – | – | 1.8 |
| COc1c(C)c2c(c(OC(C)=O)c1C/C=C(\C)CCC(=O)NO)C(=O)OC2 | – | – | – | – | – | – | – | – | – | – | 5.82 | – | 6.05 | – | – |
